Assay results: patent publication US9505781B2, “Compositions comprising thienopyrimidine and thienopyridine compounds and methods of use thereof” (The Regents of the University of Michigan, priority 2013, dated 2016)

The compounds below were run against T1, menin-MLL interaction (Homo sapiens, UniProt O00255) (assay: biochemical).
T1 sequence (O00255 1-610): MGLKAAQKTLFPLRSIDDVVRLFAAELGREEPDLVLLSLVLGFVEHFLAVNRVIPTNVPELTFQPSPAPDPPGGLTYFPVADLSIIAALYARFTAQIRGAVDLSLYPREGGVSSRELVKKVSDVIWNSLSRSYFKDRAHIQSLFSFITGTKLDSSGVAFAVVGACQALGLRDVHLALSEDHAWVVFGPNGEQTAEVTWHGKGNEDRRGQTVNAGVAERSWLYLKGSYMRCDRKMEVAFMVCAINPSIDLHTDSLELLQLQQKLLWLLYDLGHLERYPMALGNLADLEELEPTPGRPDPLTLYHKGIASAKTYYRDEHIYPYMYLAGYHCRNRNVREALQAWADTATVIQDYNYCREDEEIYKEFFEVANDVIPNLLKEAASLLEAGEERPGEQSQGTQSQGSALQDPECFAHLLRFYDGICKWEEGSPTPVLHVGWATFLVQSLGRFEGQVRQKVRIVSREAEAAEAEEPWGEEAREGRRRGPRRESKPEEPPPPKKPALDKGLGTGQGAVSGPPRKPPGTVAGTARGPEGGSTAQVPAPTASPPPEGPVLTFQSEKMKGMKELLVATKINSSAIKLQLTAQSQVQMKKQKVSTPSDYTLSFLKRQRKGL
Description: Compounds that inhibit the interaction decrease the fluorescence anisotropy which is being used as a read-out for compound screening and for IC50 determination.
For `FC(F)(F)Cc1cc2c(NCC3CCN(Cc4ccc(C(F)(F)F)cc4Cl)CC3)ncnc2s1` [Compound 268], the IC50 was 0.5 to 2 µM. `N#Cc1cc2cc(CN3CCC(Nc4ncnc5sc(CC(F)(F)F)cc45)C(NC[C@H]4CCCN4C=O)C3)ccc2[nH]1` (stereo partly shown) [Compound 161] was tested, and the IC50 was < 0.1 µM. `NC(=O)c1cc2cc(CN3CCC(Nc4ncnc5sc(CC(F)(F)F)cc45)CC3)ccc2[nH]1` [Compound 232] was tested, and the IC50 was 0.1 to 0.5 µM. `N#Cc1cc2cc(CN3CCC(Nc4ncnc5sc(CC(F)(F)F)cc45)CC3)ccc2n1Cc1cc(OCC2CC2)n[nH]1` [Compound 312] was tested, and the IC50 was < 0.1 µM. `N#Cc1cc2cc(CN3CCC(Nc4c(C#N)cnc5sc(CC(F)(F)F)cc45)CC3)ccc2[nH]1` [Compound 279] was tested, and the IC50 was < 0.1 µM. `CC(=O)NCCn1c(C#N)cc2cc(CN3CCC(Nc4ncnc5sc(CC(F)(F)F)cc45)CC3)ccc21` [Compound 208] was tested, and the IC50 was < 0.1 µM. Compound `O=C(N1CCCCC1)N1CCN(c2ncnc3sc(CC(F)(F)F)cc23)CC1` [Compound 91] has an IC50 of 0.5 to 2 µM. `Cc1c(CN2CCC(Nc3ncnc4sc(CC(F)(F)F)cc34)CC2)ccc2c1cc(C#N)n2CCN1CCN(C(=O)N(C)C)CC1` [Compound 376] was tested, and the IC50 was < 0.1 µM. With `O=C(Cc1ccccc1Cl)N1CCN(c2ncnc3sc(CC(F)(F)F)cc23)CC1` [Compound 70] the IC50 was 0.1 to 0.5 µM. In the case of `N#Cc1cc2cc(CN3CCC(Nc4ncnc5sc(CC(F)(F)F)cc45)CC3)ccc2n1CCO` [Compound 179], the IC50 is reported as < 0.1 µM. With `NS(=O)(=O)Nc1ccc(CC(=O)N2CCN(c3ncnc4sc(CC(F)(F)F)cc34)CC2)cc1` [Compound 47] the IC50 was < 0.1 µM. In the case of `CS(=O)(=O)N(CC#N)c1ccc(C(F)(F)C(=O)N2CCN(c3ncnc4sc(CC(F)(F)F)cc34)CC2)cc1` [Compound 104], the IC50 is reported as 0.5 to 2 µM. In the case of `CS(=O)(=O)N(CC1CC1)c1ccc(CC(=O)N2CCN(c3ncnc4sc(CC(F)(F)F)cc34)CC2)cc1` [Compound 102], the IC50 is reported as 0.5 to 2 µM. Work on `O=C(Cc1ccccc1)N1CCN(c2ncnc3sc(CC(F)(F)F)cc23)CC1` [Compound 67] yielded an IC50 of 0.1 to 0.5 µM. For `CC1(C)CN=C(N2CCN(c3ncnc4sc(CCCc5ccccc5)cc34)CC2)S1` [Compound 37], the IC50 was 0.5 to 2 µM. For `COc1ccccc1CC(=O)N1CCN(c2ncnc3sc(CC(F)(F)F)cc23)CC1` [Compound 94], the IC50 was 0.5 to 2 µM. `CCCc1cc2c(NC3CCN(Cc4ccccc4)CC3)ccnc2s1` [Compound 282] showed an IC50 of 0.5 to 2 µM. Compound `N#Cc1cc2cc(CN3CCC(Nc4ncnc5sc(CC(F)(F)F)cc45)CC3)ccc2n1Cc1cc(OCCCC2CCCC2)n[nH]1` [Compound 416] has an IC50 of 0.1 to 0.5 µM. Work on `Fc1ccc(CN2CCC(Nc3ncnc4sc(CC(F)(F)F)cc34)CC2)c(F)c1` [Compound 122] yielded an IC50 of 0.1 to 0.5 µM. With `CNC(=O)Cn1c(C#N)cc2cc(CN3CCC(Nc4ncnc5sc(CC(F)(F)F)cc45)CC3)ccc21` [Compound 212] the IC50 was < 0.1 µM. For `Cc1c(CN2CCC(Nc3ncnc4sc(CC(F)(F)F)cc34)CC2)ccc2c1cc(C#N)n2CC(N)=O` [Compound 301], the IC50 was < 0.1 µM. For `CC(C(N)=O)n1c(C#N)cc2cc(CN3CCC(Nc4ncnc5sc(CC(F)(F)F)cc45)CC3)ccc21` (stereo not shown) [Compound 247], the IC50 was 0.1 to 0.5 µM. In the case of `Cc1c(CN2CCC(Nc3ncnc4sc(CC(F)(F)F)cc34)CC2)ccc2c1cc(C#N)n2CC(O)(CO)CCn1ccnn1` (stereo not shown) [Compound 373], the IC50 is reported as < 0.1 µM. With `N#Cc1cc2cc(CN3CCC(Nc4ncnc5sc(CC(F)(F)F)cc45)C(NCc4cccc(F)c4)C3)ccc2[nH]1` (stereo not shown) [Compound 289] the IC50 was < 0.1 µM. With `CN(c1ccc(CC(=O)N2CCN(c3ncnc4sc(CC(F)(F)F)cc34)CC2)cc1)S(C)(=O)=O` [Compound 46] the IC50 was < 0.1 µM. `CC(C)NCC(O)Cn1c(C#N)cc2cc(CN3CCC(Nc4ncnc5sc(CC(F)(F)F)cc45)CC3)ccc21` (stereo not shown) [Compound 251] was tested, and the IC50 was 0.5 to 2 µM. With `CC(C)CN(c1ccc(CC(=O)N2CCN(c3ncnc4sc(CC(F)(F)F)cc34)CC2)cc1)S(C)(=O)=O` [Compound 101] the IC50 was 0.5 to 2 µM. `CCCc1cc2c(N(C)C3CCN(Cc4ccccc4)CC3)ncnc2s1` [Compound 150] was tested, and the IC50 was 0.5 to 2 µM. `CCCc1cc2c(NC3CCN(Cc4ccccc4C)CC3)ncnc2s1` [Compound 153] showed an IC50 of 0.5 to 2 µM. With `NCCS(=O)(=O)Nc1ccc(CC(=O)N2CCN(c3ncnc4sc(CC(F)(F)F)cc34)CC2)cc1` [Compound 50] the IC50 was < 0.1 µM. For `Cc1cc(CN2CCC(Nc3ncnc4sc(CC(F)(F)F)cc34)CC2)cc2cc(C#N)[nH]c12` [Compound 410], the IC50 was 0.1 to 0.5 µM. `Cc1c(CN2CCC(Nc3ncnc4sc(CC(F)(F)F)cc34)CC2)ccc2c1cc(C#N)n2CCN1CCN(C(=O)CCC(F)(F)F)CC1` [Compound 342] was tested, and the IC50 was < 0.1 µM. `N#Cc1cc2cc(CN3CCC(Nc4ncnc5sc(CC(F)(F)F)cc45)CC3)ccc2n1CCC(N)=O` [Compound 194] was tested, and the IC50 was < 0.1 µM. In the case of `CCC(=O)N1CCN(CCCn2c(C#N)cc3cc(CN4CCC(Nc5ncnc6sc(CC(F)(F)F)cc56)CC4)ccc32)CC1` [Compound 396], the IC50 is reported as < 0.1 µM. `NS(=O)(=O)Cc1cccc(CC(=O)N2CCN(c3ncnc4sc(CC(F)(F)F)cc34)CC2)c1` [Compound 96] gave an IC50 of 0.5 to 2 µM. Compound `FC(F)(F)Cc1cc2c(N3CCN(c4nnc(CCCC5CCCCC5)s4)CC3)ncnc2s1` [Compound 17] has an IC50 of 0.5 to 2 µM. With `Cc1c(CN2CCC(Nc3ncnc4sc(CC(F)(F)F)cc34)CC2)c(O)cc2c1cc(C#N)n2CCO` [Compound 387] the IC50 was < 0.1 µM. For `CS(=O)(=O)c1cc2cc(CN3CCC(Nc4ncnc5sc(CC(F)(F)F)cc45)CC3)ccc2[nH]1` [Compound 236], the IC50 was 0.1 to 0.5 µM. Work on `N#Cc1ccc(CN2CCC(Nc3ncnc4sc(CC(F)(F)F)cc34)CC2)cc1` [Compound 144] yielded an IC50 of 0.5 to 2 µM. In the case of `FC(F)(F)Cc1cc2c(NC3CCN(Cc4ccc(N5CCCCC5)cc4)CC3)ncnc2s1` [Compound 145], the IC50 is reported as 0.5 to 2 µM. `N#Cc1cc2cc(CN3CCC(Nc4ncnc5sc(CC(F)(F)F)cc45)CC3)ccc2n1Cc1cc(OCCC2CC2)n[nH]1` [Compound 412] was tested, and the IC50 was 0.1 to 0.5 µM. In the case of `N#CCn1c(C#N)cc2cc(CN3CCC(Nc4ncnc5sc(CC(F)(F)F)cc45)CC3)ccc21` [Compound 197], the IC50 is reported as < 0.1 µM. `Cc1c(CN2CCC(Nc3ncnc4sc(CC(F)(F)F)cc34)CC2)ccc2c1cc(C#N)n2CCN1CCNC(C)C1` (stereo not shown) [Compound 369] was tested, and the IC50 was < 0.1 µM. `Cc1c(CN2CCC(Nc3ncnc4sc(CC(F)(F)F)cc34)CC2)ccc2c1cc(C#N)n2CC(O)(CO)CC1CCCCC1` (stereo not shown) [Compound 348] was tested, and the IC50 was < 0.1 µM. In the case of `FC(F)(F)Cc1cc2c(NCC3CCN(Cc4ccc(CN5CCOCC5)cc4)CC3)ncnc2s1` [Compound 272], the IC50 is reported as 0.5 to 2 µM. For `N#Cc1c(F)c2cc(CN3CCC(Nc4ncnc5sc(CC(F)(F)F)cc45)CC3)ccc2n1CC(N)=O` [Compound 213], the IC50 was < 0.1 µM. `FC(F)(F)Cc1cc2c(NC3CCN(Cc4c[nH]c5ccccc45)CC3)ncnc2s1` [Compound 243] gave an IC50 of 0.1 to 0.5 µM. With `N#Cc1cc2c(CCO)c(CN3CCC(Nc4ncnc5sc(CC(F)(F)F)cc45)CC3)ccc2[nH]1` [Compound 296] the IC50 was < 0.1 µM. With `FC(F)(F)Cc1cc2c(NCC3CCN(Cc4ccccc4Cl)CC3)ncnc2s1` [Compound 260] the IC50 was 0.1 to 0.5 µM. Work on `OC(c1cc2c(N3CCN(c4nnc(C(F)(F)F)s4)CC3)ncnc2s1)C(F)(F)F` (stereo not shown) [Compound 23] yielded an IC50 of 0.5 to 2 µM. Work on `COCc1cnc2sc(CC(F)(F)F)cc2c1NC1CCN(Cc2ccc3[nH]c(C#N)cc3c2)CC1` [Compound 281] yielded an IC50 of 0.1 to 0.5 µM. With `Cc1c(CN2CCC(Nc3ncnc4sc(CC(F)(F)F)cc34)CC2)ccc2c1cc(C#N)n2Cc1c[nH]nn1` [Compound 311] the IC50 was < 0.1 µM. For `Cc1c(CN2CCC(Nc3ncnc4sc(CC(F)(F)F)cc34)CC2)ccc2c1cc(C#N)n2CC(O)(CO)CCC1CCCCC1` (stereo not shown) [Compound 346], the IC50 was < 0.1 µM. With `CCCCC(O)(CO)Cn1c(C#N)cc2cc(CN3CCC(Nc4ncnc5sc(CC(F)(F)F)cc45)CC3)ccc21` (stereo not shown) [Compound 308] the IC50 was < 0.1 µM. `N#Cc1cc2cc(CN3CCC(Nc4ncnc5sc(CC(F)(F)F)cc45)CC3)ccc2n1CC(O)(CO)CN1CCOCC1` (stereo not shown) [Compound 333] was tested, and the IC50 was < 0.1 µM. `Oc1cccc(CN2CCC(Nc3ncnc4sc(CC(F)(F)F)cc34)CC2)c1` [Compound 109] showed an IC50 of 0.1 to 0.5 µM. For `FC(F)(F)Cc1cc2c(NCC3CCN(Cc4ccc(Cl)cc4C(F)(F)F)CC3)ncnc2s1` [Compound 269], the IC50 was 0.5 to 2 µM. For `CCS(=O)(=O)Nc1ccc(CC(=O)N2CCN(c3ncnc4sc(CC(F)(F)F)cc34)CC2)cc1` [Compound 49], the IC50 was < 0.1 µM. With `O=C(C1CCCCC1)N1CCN(c2ncnc3sc(CC(F)(F)F)cc23)CC1` [Compound 87] the IC50 was 0.5 to 2 µM. With `Cc1c(CN2CCC(Nc3ncnc4sc(CC(F)(F)F)cc34)CC2)ccc2c1cc(C#N)n2CCN1CCSCC1` [Compound 360] the IC50 was < 0.1 µM. With `N#Cc1cc2cc(CN3CCC(Nc4ncnc5sc(CC(F)(F)F)cc45)CC3)ccc2n1Cc1nc[nH]n1` [Compound 204] the IC50 was < 0.1 µM. For `COc1cc2c(cc(C#N)n2CCO)c(C)c1CN1CCC(Nc2ncnc3sc(CC(F)(F)F)cc23)CC1` [Compound 386], the IC50 was < 0.1 µM. With `O=C1NCCC1c1ccc(CC(=O)N2CCN(c3ncnc4sc(CC(F)(F)F)cc34)CC2)cc1` (stereo not shown) [Compound 99] the IC50 was 0.5 to 2 µM. Compound `O=C(Cc1cccc(F)c1)N1CCN(c2ncnc3sc(CC(F)(F)F)cc23)CC1` [Compound 73] has an IC50 of 0.1 to 0.5 µM. With `N#Cc1cc2cc(CN3CCC(Nc4ncnc5sc(CC(F)(F)F)cc45)CC3)ccc2n1CC(CO)OC1CC1` (stereo not shown) [Compound 222] the IC50 was < 0.1 µM. For `N#Cc1cc2cc(CN3CCC(Nc4ncnc5sc(CC(F)(F)F)cc45)CC3)ccc2n1Cc1ncon1` [Compound 198], the IC50 was < 0.1 µM. `CCCCN(CC1CCN(Cc2ccc(C#N)cc2)CC1)c1ncnc2sc(CC(F)(F)F)cc12` [Compound 264] was tested, and the IC50 was 0.5 to 2 µM.
